The NIST ThermoML archive (doi:10.1021/acs.jced.5b00197)

Assays:
[1] = xn = mol fraction of the nth substance listed; details: 96.64 kPa, Liquid, mechanical oscillator
[2] = refractive index (Na D-line) (dimensionless); xn = mol fraction of the nth substance listed; details: 94.64 kPa, Liquid, Standard Abbe refractometry

CC(=O)O [acetic acid] + Cc1ccccc1
Details | mass density, 293.15 K [kg/m3] | mass density, 298.15 K [kg/m3] | mass density, 303.15 K [kg/m3] | refractive index, 293.15 K | refractive index, 298.15 K | refractive index, 303.15 K
[1], x1 = 0.146 | 878.94 | 873.65 | 868.47 | – | – | –
[1], x1 = 0.277 | 894.11 | 888.81 | 883.38 | – | – | –
[1], x1 = 0.397 | 907.9 | 902.58 | 897.1 | – | – | –
[1], x1 = 0.506 | 924.08 | 918.49 | 912.96 | – | – | –
[1], x1 = 0.605 | 940.43 | 934.75 | 929.15 | – | – | –
[1], x1 = 0.697 | 960 | 954.12 | 948.31 | – | – | –
[1], x1 = 0.782 | 978.4 | 972.48 | 966.6 | – | – | –
[1], x1 = 0.859 | 1000.2 | 994.34 | 988.34 | – | – | –
[1], x1 = 0.897 | 1017.74 | 1011.75 | 1005.81 | – | – | –
[1], x1 = 0.932 | 1027.84 | 1021.82 | 1015.9 | – | – | –
[1], x1 = 0.967 | 1038.11 | 1032.17 | 1026.28 | – | – | –
[1], x1 = 1 | 1049.63 | 1043.57 | 1037.64 | – | – | –
[2], x1 = 0.146 | – | – | – | 1.48448 | 1.48174 | 1.47906
[2], x1 = 0.277 | – | – | – | 1.47082 | 1.4681 | 1.46535
[2], x1 = 0.397 | – | – | – | 1.45878 | 1.45618 | 1.45352
[2], x1 = 0.506 | – | – | – | 1.44593 | 1.44332 | 1.44065
[2], x1 = 0.605 | – | – | – | 1.43372 | 1.43116 | 1.42842
[2], x1 = 0.697 | – | – | – | 1.4212 | 1.41872 | 1.41617
[2], x1 = 0.782 | – | – | – | 1.40891 | 1.4065 | 1.40452
[2], x1 = 0.859 | – | – | – | 1.39681 | 1.39453 | 1.39228
[2], x1 = 0.897 | – | – | – | 1.38731 | 1.38466 | 1.38303
[2], x1 = 0.932 | – | – | – | 1.38235 | 1.38029 | 1.3782
[2], x1 = 0.967 | – | – | – | 1.37721 | 1.3752 | 1.37315
[2], x1 = 1 | – | – | – | 1.37224 | 1.37012 | 1.36809
